Target: recombinant mTOR (Homo sapiens, UniProt P42345)
Test: In vitro mTOR kinase assay, Test (a)(i) (AlphaScreen)
Type: biochemical
Settings: enzyme assay; values may represent the average of two or more measurements; read-out: Test (a)(i) IC50
Protocol: (a)(i) In Vitro mTOR Kinase Assay
The HEK293 FLAG-tagged mTOR (1362-2549) stable cell line was routinely maintained at 37° C. with 5% CO2 up to a confluency of 70-90% in Dulbecco's modified Eagle's growth medium (DMEM; Invitrogen Limited, Paisley, UK Catalogue No. 41966-029) containing 10% heat-inactivated foetal calf serum (FCS; Sigma, Poole, Dorset, UK, Catalogue No. F0392), 1% L-glutamine (Gibco, Catalogue No. 25030-024) and 2 mg/ml Geneticin (G418 sulfate; Invitrogen Limited, UK Catalogue No. 10131-027). Following expression in the mammalian HEK293 cell line, expressed protein was purified using the FLAG epitope tag using standard purification techniques.
A 30 μl mixture of recombinant purified mTOR enzyme, 1 μM biotinylated peptide substrate (Biotin-Ahx-[…]NH2; Bachem UK Ltd), ATP (20 μM) and a buffer solution [comprising Tris-HCl pH7.4 buffer (50 mM), EGTA (0.1 mM), bovine serum albumin (0.5 mg/mL), DTT (1.25 mM) and manganese chloride (10 mM)] was agitated at room temperature for 90 minutes.
These assay solutions were incubated for 2 hours at room temperature.
Phosphorylated biotinylated peptide is formed in situ as a result of mTOR mediated phosphorylation. The phosphorylated biotinylated peptide that is associated with AlphaScreen Streptavidin donor beads forms a complex with the p70 S6 Kinase (T389) 1A5 Monoclonal Antibody that is associated with Alphascreen Protein A acceptor beads. […] Accordingly, the presence of mTOR kinase activity results in an assay signal. In the presence of an mTOR kinase inhibitor, signal strength is reduced.

Sequence of recombinant mTOR (P42345 1362-2549): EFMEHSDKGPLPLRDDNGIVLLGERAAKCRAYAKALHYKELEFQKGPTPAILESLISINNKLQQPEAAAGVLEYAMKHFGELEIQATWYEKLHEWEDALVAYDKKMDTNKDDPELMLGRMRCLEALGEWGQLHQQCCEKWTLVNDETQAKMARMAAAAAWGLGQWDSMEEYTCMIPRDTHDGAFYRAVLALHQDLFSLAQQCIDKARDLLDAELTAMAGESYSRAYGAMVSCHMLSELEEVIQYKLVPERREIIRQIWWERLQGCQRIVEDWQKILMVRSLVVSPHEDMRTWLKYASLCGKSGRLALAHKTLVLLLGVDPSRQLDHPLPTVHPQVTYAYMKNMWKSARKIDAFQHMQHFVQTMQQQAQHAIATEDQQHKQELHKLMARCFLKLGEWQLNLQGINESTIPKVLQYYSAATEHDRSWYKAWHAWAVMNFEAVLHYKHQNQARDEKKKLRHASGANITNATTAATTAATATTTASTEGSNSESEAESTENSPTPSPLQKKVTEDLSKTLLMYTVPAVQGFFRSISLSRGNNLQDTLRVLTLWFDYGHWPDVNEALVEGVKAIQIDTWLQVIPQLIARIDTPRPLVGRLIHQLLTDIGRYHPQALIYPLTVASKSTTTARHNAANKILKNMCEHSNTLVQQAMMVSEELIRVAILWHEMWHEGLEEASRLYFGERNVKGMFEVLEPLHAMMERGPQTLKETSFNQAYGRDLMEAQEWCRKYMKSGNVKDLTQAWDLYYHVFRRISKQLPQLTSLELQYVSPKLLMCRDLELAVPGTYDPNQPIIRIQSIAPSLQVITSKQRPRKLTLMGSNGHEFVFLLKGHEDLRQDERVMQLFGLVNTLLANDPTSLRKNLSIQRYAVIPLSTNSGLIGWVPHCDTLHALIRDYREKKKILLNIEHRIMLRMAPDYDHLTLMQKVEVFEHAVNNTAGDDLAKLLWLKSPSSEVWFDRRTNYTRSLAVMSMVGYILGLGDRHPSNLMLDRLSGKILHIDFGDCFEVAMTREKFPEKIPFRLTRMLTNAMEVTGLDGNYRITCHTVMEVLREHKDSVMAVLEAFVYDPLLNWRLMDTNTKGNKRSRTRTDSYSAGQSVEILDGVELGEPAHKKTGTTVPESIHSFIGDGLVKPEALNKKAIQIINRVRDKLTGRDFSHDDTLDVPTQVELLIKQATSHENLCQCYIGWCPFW

SMILES	IC50 [nM]
C[C@@H]1CN(c2nc(CS(C)(=O)=O)cc(N3CCOC[C@@H]3C)n2)C[C@H](C)O1 [Example 20, 2-[(2R,6S)-2,6-Dimethylmorpholin-4-yl]-4-[(3S)-3-methylmorpholin-4-yl]-6-(methylsulfonylmethyl)pyrimidine]	1650
C[C@H]1COCCN1c1cc(CS(C)(=O)=O)nc(-c2cnc(-c3cn[nH]c3)s2)n1 [Example 34, 4-[(3S)-3-Methylmorpholin-4-yl]-6-(methylsulfonylmethyl)-2-[2-(1H-pyrazol-4-yl)-1,3-thiazol-5-yl]pyrimidine]	573
C[C@H]1COCCN1c1cc(CS(C)(=O)=O)nc(-c2ccc3[nH]c(C(N)=O)cc3c2)n1 [Example 37, 5-[4-[(3S)-3-Methylmorpholin-4-yl]-6-(methylsulfonylmethyl)pyrimidin-2-yl]-1H-indole-2-carboxamide]	336
C[C@H]1COCCN1c1cc(CS(C)(=O)=O)nc(-c2cnc3[nH]ccc3c2)n1 [Example 23, 3-[4-[(3S)-3-Methylmorpholin-4-yl]-6-(methylsulfonylmethyl)pyrimidin-2-yl]-5,7-diazabicyclo[4.3.0]nona-1,3,5,8-tetraene]	37.7
C[C@H]1COCCN1c1cc(CS(C)(=O)=O)nc(-c2ccc3cc(C(N)=O)[nH]c3c2)n1 [Example 38, 6-[4-[(3S)-3-Methylmorpholin-4-yl]-6-(methylsulfonylmethyl)pyrimidin-2-yl]-1H-indole-2-carboxamide]	5350
COc1ccc(C(=O)Nc2cc(N3CCOC[C@@H]3C)nc(N3CCOC[C@@H]3C)n2)cc1C(F)(F)F [Example 2, N-[2,6-Bis[(3S)-3-methylmorpholin-4-yl]pyrimidin-4-yl]-4-methoxy-3-(trifluoromethyl)benzamide]	236
CCC(C)S(=O)(=O)Cc1cc(N2CCOC[C@@H]2C)nc(-c2ccc3[nH]ccc3c2)n1 (stereo partly drawn) [Example 26, 5-[4-(Butan-2-ylsulfonylmethyl)-6-[(3S)-3-methylmorpholin-4-yl]pyrimidin-2-yl]-1H-indole]	1380
C[C@H]1COCCN1c1cc(CS(=O)(=O)c2ccccc2)nc(-c2cnc3[nH]ccc3c2)n1 [Example 46, 3-[4-(benzenesulfonylmethyl)-6-[(3S)-3-methylmorpholin-4-yl]pyrimidin-2-yl]-5,7-diazabicyclo[4.3.0]nona-1,3,5,8-tetraene]	932
C[C@H]1COCCN1c1cc(C(C)(C)S(C)(=O)=O)nc(-c2ccc3cc[nH]c3c2)n1 [Example 43, 6-[4-[(3S)-3-methylmorpholin-4-yl]-6-(2-methylsulfonylpropan-2-yl)pyrimidin-2-yl]-1H-indole]	880
CCS(=O)(=O)Cc1cc(N2CCOC[C@H]2C)nc(-c2ccc3[nH]ccc3c2)n1 [Example 29, 5-[4-(ethylsulfonylmethyl)-6-[(3R)-3-methylmorpholin-4-yl]pyrimidin-2-yl]-1H-indole]	351
C[C@H]1COCCN1c1cc(CS(C)(=O)=O)nc(N2CCOCC2)n1 [Example 22, 4-[(3S)-3-methylmorpholin-4-yl]-6-(methylsulfonylmethyl)-2-morpholin-4-yl-pyrimidine]	1700
CCC(C)[S+]([O-])Cc1cc(N2CCOC[C@H]2C)nc(-c2ccc3[nH]ccc3c2)n1 (stereo partly drawn) [Example 27, 5-[4-(butan-2-ylsulfinylmethyl)-6-[(3R)-3-methylmorpholin-4-yl]pyrimidin-2-yl]-1H-indole]	1170
C[C@H]1COCCN1c1cc(CS(=O)(=O)c2ccccc2)nc(-c2ccc3[nH]ccc3c2)n1 [Example 45, 5-[4-(benzenesulfonylmethyl)-6-[(3S)-3-methylmorpholin-4-yl]pyrimidin-2-yl]-1H-indole]	119
C[C@H]1COCCN1c1cc(CS(C)(=O)=O)nc(-c2ccc3c(C(N)=O)c[nH]c3c2)n1 [Example 36, 6-[4-[(3S)-3-Methylmorpholin-4-yl]-6-(methylsulfonylmethyl)pyrimidin-2-yl]-1H-indole-3-carboxamide]	1640
C[C@H]1COCCN1c1cc(C(C)(C)S(C)(=O)=O)nc(-c2ccc3[nH]cnc3c2)n1 [Example 39, 5-[4-[(3S)-3-Methylmorpholin-4-yl]-6-(2-methylsulfonylpropan-2-yl)pyrimidin-2-yl]-1H-benzoimidazole]	192
C[C@H]1COCCN1c1cc(CS(=O)(=O)c2ccccc2)nc(-c2ccc3[nH]cnc3c2)n1 [Example 48, 5-[4-(benzenesulfonylmethyl)-6-[(3S)-3-methylmorpholin-4-yl]pyrimidin-2-yl]-1H-benzoimidazole]	108
C[C@H]1COCCN1c1cc(CS(=O)(=O)c2ccccc2)nc(-c2ccc3cc[nH]c3c2)n1 [Example 47, 6-[4-(benzenesulfonylmethyl)-6-[(3S)-3-methylmorpholin-4-yl]pyrimidin-2-yl]-1H-indole]	512
C[C@H]1COCCN1c1cc(CS(C)(=O)=O)nc(-c2ccc3[nH]ccc3c2)n1 [Example 24]	303
C[C@H]1COCCN1c1cc(CS(C)(=O)=O)nc(-c2cccc(-c3cn[nH]c3)c2)n1 [Example 32, 4-[(3S)-3-Methylmorpholin-4-yl]-6-(methylsulfonylmethyl)-2-[3-(1H-pyrazol-4-yl)phenyl]pyrimidine]	437
C[C@@H]1COCCN1c1cc(CS(C)(=O)=O)nc(-c2ccc3[nH]ccc3c2)n1 [Example 25, 5-[4-[(3R)-3-methylmorpholin-4-yl]-6-(methylsulfonylmethyl)pyrimidin-2-yl]-1H-indole]	385
C[C@H]1COCCN1c1cc(CS(C)(=O)=O)nc(-c2ccc3[nH]cc(C(N)=O)c3c2)n1 [Example 33, 5-[4-[(3S)-3-Methylmorpholin-4-yl]-6-(methylsulfonylmethyl)pyrimidin-2-yl]-1H-indole-3-carboxamide]	154
CC(C)S(=O)(=O)Cc1cc(N2CCOC[C@H]2C)nc(-c2ccc3[nH]ccc3c2)n1 [Example 28, 5-[4-[(3R)-3-methylmorphlin-4-yl]-6-(propan-2-ylsulfonylmethyl)pyrimidin-2-yl]-1H-indole]	626
C[C@H]1COCCN1c1cc(CS(C)(=O)=O)nc(N2CCCC(O)C2)n1 (stereo partly drawn) [Example 21, 1-[4-[(3S)-3-Methylmorpholin-4-yl]-6-(methylsulfonylmethyl)pyrimidin-2-yl]piperidin-3-ol]	2300

More lines, now with the values ahead:

IC50 [nM]	SMILES
2680	COc1ccc(C(=O)Nc2nc(N3CCOC[C@@H]3C)cc(N3CCOC[C@@H]3C)n2)cn1 [Example 6, N-[4,6-Bis[(3S)-3-methylmorpholin-4-yl]pyrimidin-2-yl]-6-methoxy-pyridine-3-carboxamide]
26400	CC(=O)Nc1cc(C(=O)Nc2cc(N3CCOC[C@@H]3C)nc(N3CCOC[C@@H]3C)n2)ccn1 [Example 10, 2-Acetamido-N-[2,6-bis[(3S)-3-methylmorpholin-4-yl]pyrimidin-4-yl]pyridine-4-carboxamide]
886	COc1ccccc1C(=O)Nc1nc(N2CCOC[C@@H]2C)cc(N2CCOC[C@@H]2C)n1 [Example 14, N-[4,6-Bis[(3S)-3-methylmorpholin-4-yl]pyrimidin-2-yl]-2-methoxy-benzamide]
2470	COc1ccc(C(=O)Nc2nc(N3CCOC[C@@H]3C)cc(N3CCOC[C@@H]3C)n2)cc1F [Example 16, N-[4,6-Bis[(3S)-3-methylmorpholin-4-yl]pyrimidin-2-yl]-3-fluoro-4-methoxy-benzamide]
3580	COc1ccc(C(=O)Nc2cc(N3CCOC[C@@H]3C)nc(N3CCOC[C@@H]3C)n2)cc1F [Example 11, N-[2,6-Bis[(3S)-3-methylmorpholin-4-yl]pyrimidin-4-yl]-3-fluoro-4-methoxy-benzamide]
1580	CC(=O)Nc1ccc(C(=O)Nc2nc(N3CCOC[C@@H]3C)cc(N3CCOC[C@@H]3C)n2)cn1 [Example 13, 6-Acetamido-N-[4,6-bis[(3S)-3-methylmorpholin-4-yl]pyrimidin-2-yl]pyridine-3-carboxamide]
1780	CC(=O)Nc1ccc(C(=O)Nc2cc(N3CCOC[C@@H]3C)nc(N3CCOC[C@@H]3C)n2)cn1 [Example 8, 6-Acetamido-N-[2,6-bis[(3S)-3-methylmorpholin-4-yl]pyrimidin-4-yl]pyridine-3-carboxamide]
181	COc1ccc(C(=O)Nc2cc(N3CCOC[C@@H]3C)nc(N3CCOC[C@@H]3C)n2)cc1 [Example 19, N-[2,6-Bis[(3S)-3-methylmorpholin-4-yl]pyrimidin-4-yl]-4-methoxy-benzamide]
9550	CC(=O)Nc1cc(C(=O)Nc2nc(N3CCOC[C@@H]3C)cc(N3CCOC[C@@H]3C)n2)ccn1 [Example 15, 2-Acetamido-N-[4,6-bis[(3S)-3-methylmorpholin-4-yl]pyrimidin-2-yl]pyridine-4-carboxamide]
2840	COc1cc(C(=O)Nc2cc(N3CCOC[C@@H]3C)nc(N3CCOC[C@@H]3C)n2)ccn1 [Example 7, N-[2,6-Bis[(3S)-3-methylmorpholin-4-yl]pyrimidin-4-yl]-2-methoxy-pyridine-4-carboxamide]
234	COc1cccc(C(=O)Nc2cc(N3CCOC[C@@H]3C)nc(N3CCOC[C@@H]3C)n2)c1 [Example 3, N-[2,6-Bis[(3S)-3-methylmorpholin-4-yl]pyrimidin-4-yl]-3-methoxy-benzamide]
